Molecules are shown by their SMILES. ± gives the expanded uncertainty stated by the source.

Consider 4 molecules from the NIST ThermoML archive (doi:10.1016/j.jct.2013.10.025).

The conditions of this data set: 298.15 K, 101.33 kPa, Liquid; for viscosity: Capillary tube (Ostwald / Ubbelohde) method; for speed of sound: Sing-around technique in a fixed-path interferometer; for mass density: Vibrating tube method.

Take `CCCCCCCCCCO` [decan-1-ol]: the viscosity (commonly the internal friction of a fluid under shear) stood at 10.61 ± 0.37 mPa·s; the speed of sound (as a rule, the propagation velocity of pressure waves in the medium) is given as 1379.3 ± 1.6 m/s; the mass density (in general, mass per unit of volume) is 826.407 ± 0.24 kg/m3.
With `CCCCCCO` [hexan-1-ol], the viscosity came to 4.436 ± 0.36 mPa·s, the speed of sound came out at 1303.5 ± 1.5 m/s and the mass density worked out at 815.295 ± 0.24 kg/m3.
Regarding `CCCCCCCCO` [octan-1-ol], the viscosity was 7.446 ± 0.36 mPa·s, the speed of sound worked out at 1347.9 ± 1.5 m/s and the mass density is on record as 821.837 ± 0.24 kg/m3.
For `C1CCOC1` [tetrahydrofuran] the same measures were 0.474 mPa·s, 1280.1 ± 1.5 m/s and 882.15 ± 0.23 kg/m3.
